Here are results for ten compounds from PubChem BioAssay (NCI).

Each structure is given as a SMILES string.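 48-hour exposure; five concentrations; linearly interpolated endpoints. TGI marks complete inhibition of growth.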

Experiment in all cases: growth of human tumour cells (NCI), 48 h
The test system of assay [1] is HCT-116 colon.
In assay [2] the test system is HCT-15 colon.
The subject of assay [3] is HT29 colon.
Assay [4] deals with K-562 leukemia.
Assay [5] concerns MALME-3M melanoma.
Assay [6] has as its system MCF7 breast.
Assay [7] has as its system MDA-MB-231 breast.
Assay [8] concerns MDA-MB-435.
In assay [9] the test system is MOLT-4 leukemia.
For assay [10], the system named is NCI-H522 lung.
For assay [11], the system named is OVCAR-8 ovarian.

Regarding `S=c1sc2nc(Cl)nc(Cl)c2s1`, the TGI in [1] worked out at 26 µM; in assay [2] it was 30.7 µM; in [3] it was 23.5 µM; in assay [4], 28.1 µM; in assay [5] it was 23.2 µM; in assay [6], 25.2 µM. The TGI in assay [7] was 24.7 µM; in [8] it was 22.4 µM; in [9] it was above 29.3 µM; in assay [10], 25.2 µM; in [11] it was 29.8 µM.

Take `Cc1c(C)c(S(=O)(=O)N(CCCN)OCCCN)c(C)c2c1OC(C)(C)C2`: the TGI in assay [1] was above 100 µM; in [2], above 100 µM; in assay [3] it was above 100 µM; in [4], above 100 µM; in assay [5] it was 42.1 µM; in assay [6], 38.4 µM. Further, the TGI in assay [7] is 33.3 µM; in [8], above 100 µM; in assay [9], 42.7 µM; in [10], 30.6 µM; in assay [11], above 100 µM.

On to `C=CCNC1=C2C[C@@H](C)C[C@@H](OC)[C@H](OC(=O)CN)[C@H](C)/C=C(\C)[C@@H](OC(N)=O)[C@H](OC)/C=C\C=C(/C)C(=O)NC(=CC1=O)C2=O`, for which the TGI in assay [1] is 14.4 µM; in [2] it was 22.5 µM; in assay [3], 17.6 µM; in assay [4], above 47.4 µM; in assay [5] it was 21.8 µM; in assay [6], 12.8 µM. Besides, the TGI in assay [7] was 15.6 µM; in assay [8], 14.3 µM; in assay [9] it was above 36.1 µM; in assay [10] it was 18.8 µM; in [11] it was 18.3 µM.

`COc1ccc2c(c1)CCC1=CC3(CCC12C)SCCS3` (stereo not given): the TGI in assay [2], in assay [3], in assay [4], in assay [5], in assay [6] and in assay [7] was above 10 µM in each case. For the same compound, the TGI in assay [8], in assay [9], in assay [10] and in [11] was above 10 µM each time.

On to `CC1OC(OC2C(O)COC(OC3C(C)OC(OC4C(OC(=O)[C@]56CCC(C)(C)C[C@@H]5C5=CCC7[C@@]8(C)C[C@H](O)[C@H](OC9OC(CO)C(O)C(OC%10OC(CO)C(O)C(O)C%10O)C9O)[C@@](C)(CO)[C@@H]8CC[C@@]7(C)[C@]5(C)CC6)OCC(O)C4O)C(O)C3O)C2O)C(O)C(O)C1O` (stereo not given in full), for which the TGI in assay [1] is 32.7 µM; in assay [2], 38.7 µM; in assay [3], 31.5 µM; in assay [4], above 100 µM; in [5] it was 30.8 µM; in assay [6] it was 36.1 µM. Also, the TGI in assay [7] came to 31.2 µM; in assay [8], 42.1 µM; in assay [9] it was 36.5 µM; in [10], 31.4 µM; in assay [11], 32.8 µM.

With `Clc1nc2n(c1/C=C/c1cccs1)CCS2`, the TGI was above 100 µM in assay [1]; above 100 µM in [2]; 96.6 µM in assay [3]; above 100 µM in [4]; above 100 µM in assay [5]; above 100 µM in assay [6]. The TGI in assay [7] is 48.8 µM; in assay [8], above 100 µM; in assay [9] it was 35.2 µM; in [10] it was above 100 µM; in assay [11], above 100 µM.

`Cn1c2c(c3ccccc31)CC(=S)N1CCCC(CC2O)C1` (stereo not given): the TGI in assay [1], in [2], in [3], in [4], in assay [5] and in assay [6] was above 100 µM in each case. The TGI in assay [7], in [8], in assay [10] and in assay [11] was above 100 µM in each case.

As to `Cc1c(C)c2c(c(N)c1C#N)C(=O)N(CCN1CCNCC1)C2=O`, the TGI is 52.2 µM in [1]; above 100 µM in assay [2]; above 100 µM in [4]; 73.1 µM in assay [5]; above 100 µM in assay [6]; above 100 µM in assay [7]. In addition, the TGI in [8] is above 100 µM; in [9], above 100 µM; in assay [10], 97.3 µM; in assay [11], above 100 µM.

`CCCCC(=O)Oc1ccc2c(C)cc(=O)oc2c1`: the TGI in assay [1], in [3], in [4], in [5], in [6] and in [7] was above 100 µM throughout. Moreover, the TGI in assay [8], in assay [9], in assay [10] and in assay [11] was above 100 µM in each case.

With `COc1c(O)c2c(=O)cc(OC)c3c4c(OC)cc(=O)c5c(O)c(OC)c6c(c(c1C(C(C)=O)C6C(C)O)c23)c54` (stereo not given), the TGI in assay [1] was determined as 3.06 µM; in assay [2], 2.25 µM; in assay [3] it was 0.267 µM; in assay [5], 2.57 µM; in assay [6], 1.54 µM; in [7], 1.88 µM. For the same compound, the TGI in assay [8] turned out to be 3.1 µM; in assay [9], 0.443 µM; in assay [10] it was 0.634 µM; in assay [11] it was 0.71 µM.
